Among the data in the supplement of paper PMC11616607 are drug sensitivity score values, retold here.

For the first test, the system named is OV90. Briefly: drug sensitivity score (DSS) from 5-point dose-response viability curve (DSS (area-under-curve based score)); higher = more sensitive (stronger growth inhibition or killing); extreme values may be limits of the assay. Particulars: exposure time: 72 h; concentration range: 5 concentrations over 10,000-fold range. A digest of the protocol:
(§1)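 Drug sensitivity scores were calculated in Breeze software for each cell line and drug pair; higher scores indicate more sensitivity. A score of zero indicates no response. The underlying assay used 384-well plates: drugs were placed by an Echo 550 acoustic dispenser at five concentrations spanning a 10,000-fold range, 1,500 ovarian cancer or normal ovarian cells were added per well, and cells were kept 3 days at 37°C, 5% CO2. Viability was then measured with CellTiter-Glo luminescence on a PHERAstar FS.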
`O=C(O)c1ccc2c(c1)nc(Nc1cccc(Cl)c1)c1ccncc12` [Silmitasertib]: the drug sensitivity score was 5.8.

Compound `CCOc1ccccc1-n1c(C(C)N2CCN(C(=O)COc3ccc(Cl)cc3)CC2)nc2ccccc2c1=O` (stereo unspecified) [Erastin] displayed a drug sensitivity score of 1.4.

`CCNCCS(=O)(=O)NC[C@@]1(c2ccccc2)SC(NC(=O)C(C)(C)C)=NN1C(=O)C(C)(C)C` [Litronesib] gave a drug sensitivity score of 11.6.

Turning to `CNC(=O)c1cccc(-c2ccc3c(N4CCOC[C@@H]4C)nc(N4CCOC[C@@H]4C)nc3n2)c1` [Vistusertib], the drug sensitivity score came out at 15.1.

Compound `CC(C)(C)c1cc(NC(=O)Nc2ccc(-c3cn4c(n3)sc3cc(OCCN5CCOCC5)ccc34)cc2)no1` [Quizartinib] returned a drug sensitivity score of 0.2.

`N[C@@H]1CCCN(c2c(/C=C3\SC(=O)NC3=O)cccc2-c2ccccc2)C1` [AZD1208] displayed a drug sensitivity score of 0.3.

On to `CCc1c2c(nc3ccc(O)cc13)-c1cc3c(c(=O)n1C2)COC(=O)[C@]3(O)CC` [SN-38], for which the drug sensitivity score was 24.6.

Regarding `Cn1cc(-c2ccc(F)c(C(F)(F)F)c2)nc1C1CCN(c2ncnc3[nH]ncc23)CC1`, the drug sensitivity score amounted to 0.

For the compound `C=CC(=O)Nc1cc(Nc2nccc(-c3cn(C)c4ccccc34)n2)c(OC)cc1N(C)CCN(C)C` [Osimertinib], the drug sensitivity score turned out to be 1.4.

The compound `COC(=O)c1ccc2c(c1)[nH]c1ncnc(NCCCN3CCCCC3)c12` [UM729] had a drug sensitivity score of 0.

`Cc1nc(NC(=O)N2CCC[C@H]2C(N)=O)sc1-c1ccnc(C(C)(C)C(F)(F)F)c1` [Alpelisib] came in with a drug sensitivity score of 1.

`C[C@H]1CNCCCN1S(=O)(=O)c1cccc2cncc(F)c12` [Ripasudil]: the drug sensitivity score is 0.

Compound `CC(C)(C)C[C@@H]1N[C@@H](C(=O)N[C@H]2CC[C@H](O)CC2)[C@H](c2cccc(Cl)c2F)[C@]12C(=O)Nc1cc(Cl)ccc12` came in with a drug sensitivity score of 2.1.

Compound `CON(C)C(=O)N1N=C(c2cc(F)ccc2F)S[C@@]1(CCCN)c1ccccc1` [Filanesib] displayed a drug sensitivity score of 10.8.

As for `CN(C)CC#Cc1ccc(OCCCc2sc(N3CCc4cccc(C(=O)Nc5nc6ccccc6s5)c4C3)nc2C(=O)O)c(F)c1`, the drug sensitivity score turned out to be 19.2.

In turn, `COc1cc(N2CCC(N3CCN(C)CC3)CC2)ccc1Nc1ncnc(Nc2ccccc2S(=O)(=O)C(C)C)n1` [ASP3026] came in with a drug sensitivity score of 5.2.

`CNC(=O)c1ccccc1Nc1cc(Nc2ccc(N3CCOCC3)cc2OC)ncc1C(F)(F)F` [VS-4718] had a drug sensitivity score of 9.2.

As for `CC(=O)c1c(C)c2cnc(Nc3ccc(N4CCNCC4)cn3)nc2n(C2CCCC2)c1=O` [Palbociclib], the drug sensitivity score amounted to 0.8.

On to `CS(=O)(=O)N1CCN(Cc2cc3nc(-c4cccc5[nH]ncc45)nc(N4CCOCC4)c3s2)CC1` [Pictilisib], for which the drug sensitivity score amounted to 6.2.

As for `CCS(=O)(=O)N1CC(CC#N)(n2cc(-c3ncnc4[nH]ccc34)cn2)C1` [Baricitinib], the drug sensitivity score worked out at 0.

The compound `O=C(Nc1cnn2ccc(N3CCC[C@@H]3c3cc(F)ccc3F)nc12)N1CC[C@H](O)C1` [Larotrectinib] came in with a drug sensitivity score of 0.

`CCN1CCN(Cc2ccc(Nc3ncc(F)c(-c4cc(F)c5nc(C)n(C(C)C)c5c4)n3)nc2)CC1` [Abemaciclib] displayed a drug sensitivity score of 1.5.

Consider `O=C(Nc1ccncc1)C(=O)c1cn(Cc2ccc(Cl)cc2)c2ccccc12` [Indibulin], for which the drug sensitivity score came out at 5.9.

In turn, `CN(C)C[C@@H]1CCn2cc(c3ccccc32)C2=C(C(=O)NC2=O)c2cn(c3ccccc23)CCO1` [Ruboxistaurin] had a drug sensitivity score of 6.4.

For the compound `C[C@H](Nc1ncnc2[nH]cnc12)c1cc2ccc(F)cc2nc1-c1ccccn1` [AMG319], the drug sensitivity score was found to be 0.

The compound `CC(C)(C)c1cc(NC(=O)Nc2ccc(Oc3ccnc4[nH]c(=O)cnc34)cc2F)n(-c2ccccc2)n1` had a drug sensitivity score of 12.4.

In the case of `CCn1cc(-c2ccnc3[nH]c(-c4cccc(CN(C)C)c4)cc23)c(-c2ccc(NC(=O)N(C)C)cc2)n1`, the drug sensitivity score is 0.3.

Consider `CCCCCCCCc1ccc(CCC(N)(CO)CO)cc1` [Fingolimod], for which the drug sensitivity score came to 6.2.

In turn, `C1=N/C2=N/c3ccc(OCCN4CCCC4)c(c3)COC/C=C/COCc3cccc(c3)C(=C1)N2` [Pacritinib] registered a drug sensitivity score of 10.5.

Regarding `Nc1ccccc1NC(=O)c1ccc(CNc2nccc(-c3cccnc3)n2)cc1` [Mocetinostat], the drug sensitivity score is 7.5.

Regarding `N#CC1(c2ccc(NC(=O)c3cccnc3NCc3ccncc3)cc2)CCCC1` [Apatinib], the drug sensitivity score amounted to 0.

In a further test the test system is OVCAR8. The description is as above. Particulars: exposure time: 72 h; concentration range: 5 concentrations over 10,000-fold range. A digest of the protocol:
as §1
Consider `O=C(O)c1ccc2c(c1)nc(Nc1cccc(Cl)c1)c1ccncc12` [Silmitasertib], for which the drug sensitivity score was 4.7.

`CCOc1ccccc1-n1c(C(C)N2CCN(C(=O)COc3ccc(Cl)cc3)CC2)nc2ccccc2c1=O` (stereo unspecified) [Erastin] yielded a drug sensitivity score of 7.9.

With `CCNCCS(=O)(=O)NC[C@@]1(c2ccccc2)SC(NC(=O)C(C)(C)C)=NN1C(=O)C(C)(C)C` [Litronesib], the drug sensitivity score was 18.4.

In the case of `CNC(=O)c1cccc(-c2ccc3c(N4CCOC[C@@H]4C)nc(N4CCOC[C@@H]4C)nc3n2)c1` [Vistusertib], the drug sensitivity score worked out at 10.2.

Compound `CC(C)(C)c1cc(NC(=O)Nc2ccc(-c3cn4c(n3)sc3cc(OCCN5CCOCC5)ccc34)cc2)no1` [Quizartinib] registered a drug sensitivity score of 2.2.

`N[C@@H]1CCCN(c2c(/C=C3\SC(=O)NC3=O)cccc2-c2ccccc2)C1` [AZD1208] returned a drug sensitivity score of 0.1.

As to `CCc1c2c(nc3ccc(O)cc13)-c1cc3c(c(=O)n1C2)COC(=O)[C@]3(O)CC` [SN-38], the drug sensitivity score turned out to be 28.6.

In turn, `Cn1cc(-c2ccc(F)c(C(F)(F)F)c2)nc1C1CCN(c2ncnc3[nH]ncc23)CC1` registered a drug sensitivity score of 0.1.

With `C=CC(=O)Nc1cc(Nc2nccc(-c3cn(C)c4ccccc34)n2)c(OC)cc1N(C)CCN(C)C` [Osimertinib], the drug sensitivity score is 3.7.

Compound `COC(=O)c1ccc2c(c1)[nH]c1ncnc(NCCCN3CCCCC3)c12` [UM729] displayed a drug sensitivity score of 1.6.

On to `Cc1nc(NC(=O)N2CCC[C@H]2C(N)=O)sc1-c1ccnc(C(C)(C)C(F)(F)F)c1` [Alpelisib], for which the drug sensitivity score was 0.3.

`C[C@H]1CNCCCN1S(=O)(=O)c1cccc2cncc(F)c12` [Ripasudil] showed a drug sensitivity score of 0.

Compound `CC(C)(C)C[C@@H]1N[C@@H](C(=O)N[C@H]2CC[C@H](O)CC2)[C@H](c2cccc(Cl)c2F)[C@]12C(=O)Nc1cc(Cl)ccc12` came in with a drug sensitivity score of 0.4.

`CON(C)C(=O)N1N=C(c2cc(F)ccc2F)S[C@@]1(CCCN)c1ccccc1` [Filanesib] gave a drug sensitivity score of 17.7.

With `CN(C)CC#Cc1ccc(OCCCc2sc(N3CCc4cccc(C(=O)Nc5nc6ccccc6s5)c4C3)nc2C(=O)O)c(F)c1`, the drug sensitivity score came out at 0.
